Laboratory results taken from US20250313555A1, “2-SUBSTITUTED THIAZOLE AND BENZOTHIAZOLE COMPOSITIONS AND METHODS AS DUX4 INHIBITORS” (ALTAY THERAPEUTICS, INC., priority 2022, published 2025).

Key:
Type in all cases: cell-based
[1] = Cell cytotoxicity 50 assay (CC50), MB200 cells, cell titer glo; conditions: human
Procedure, shortened: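 MB200 cells were seeded at 10 k/well in F10 medium with bFGF, 15% FBS and dexamethasone. Cells were exposed to serially diluted compound (from 10 mM stock) in triplicate for 72 h at 37 °C. Viability was read by CellTiter-Glo luminescence and CC50 was fitted.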

[2] = Cell cytotoxicity 50 assay (CC50), HEK cells; conditions: human
Procedure, shortened: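 Starting from a 10 mM drug solution, serial dilutions were made in medium and added onto HEK cells, which were then incubated 72 h at 37 °C. Viability was read as CellTiter-Glo luminescence after 5 min, and CC50 was obtained by curve fitting.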

[3] = target: T1, DUX4 (Homo sapiens, UniProt Q9UBX2); experiment: DUX4 EC50 luciferase reporter protocol in transfected HEK293 cells; conditions: 6 hr
T1 construct: expressed in transfected cells; host or cells: HEK293
T1 sequence (Q9UBX2 whole entry): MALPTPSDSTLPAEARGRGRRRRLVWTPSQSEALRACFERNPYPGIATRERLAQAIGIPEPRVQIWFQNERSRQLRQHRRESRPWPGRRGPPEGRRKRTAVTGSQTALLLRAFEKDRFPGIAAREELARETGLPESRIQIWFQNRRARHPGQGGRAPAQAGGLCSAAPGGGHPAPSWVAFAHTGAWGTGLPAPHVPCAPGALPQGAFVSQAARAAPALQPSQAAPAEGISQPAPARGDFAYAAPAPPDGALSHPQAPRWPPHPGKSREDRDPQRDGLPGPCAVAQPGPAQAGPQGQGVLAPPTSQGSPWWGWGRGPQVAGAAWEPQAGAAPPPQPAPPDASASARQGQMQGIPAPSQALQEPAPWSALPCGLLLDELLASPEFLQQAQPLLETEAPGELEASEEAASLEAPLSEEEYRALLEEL
Excerpt: EC50 Protocol This example provides a representative protocol for a single well of a 96-well plate. It can be scaled up as necessary for treatment of multiple wells. For negative controls, a well containing reporter DNA, Renilla DNA, and turbofect (without expression vector) were used. For positive controls, wells containing cells that were not treated with any inhibitor were used. They were transfected with the complete DNA lipid complex as set forth below. The DNA-lipid complex for one well of the 96-well plate is prepared by adding to a tube 100 ng of the transfection factor (TF) expression vector, 100 ng of TF reporter DNA, 10 ng of Renilla reporter DNA, […] Turbofect transfection reagent, and […] of the medium without any serum or penicillin/streptomycin. The combination was mixed by gentle flicking of the tube, and the mixture was pipetted into a well of a 96-well plate. The plate was then gently tapped to spread the combination evenly on the bottom of the well. The well was incubated for 30 min. HEK293 cells were grown until 80% confluent in DMEM supplemented with 10% fetal bovine serum, 1% penicillin streptomycin, and 1% amphotericin B. The adherent cells growing on a 10 cm plate were trypsinized with 1 mL of prewarmed trypsin. Once the cells detached from the plate, 10 mL of medium was added, and the cells were strained through a […] cell strainer. The cells were counted using a mixture of 10 mL cell suspension with 10 mL of trypan blue. Once the total number of cells are counted, a dilution of 150 k/mL was prepared. After incubation of the transfection complex was complete, […] of HEK293s (23.25 k total cells) were gently dispensed on top of the wells containing the 25 mL transfection complex, producing a total volume of about 180 mL. The mixture was then incubated for 24 h. To treat cells with each inhibitor, the inhibitors were prepared in the same growth medium. In a deep well block, the regular medium with serum was added to well 1 (135 mL) and to wells 2 through 10 (100 mL). To the first well was added 15 mL of 10 nM inhibitor. The final concentration of the drug in well 1 was 1 nM. The wells were pipeted up and down, and 50 mL was transferred from well 1 to well 2 (1/3 dilution). The well was mixed, and the seriation dilution was repeated with the remaining wells. Once the serial dilution was complete, using a multichannel pipet, 20 mL of each inhibitor were transferred to designated wells in a 96-well plate. […] Before the assay, a sufficient amount of 1× passive lysis buffer was prepared. The luciferase substrate buffer (Promega) was thawed completely and then mixed with the lyophilized luciferase substrate. The stop buffer (Promega) was also completely thawed. (1) Cell lysis: After treatment of the cells was complete, all the cell media is removed by flipping the 96-well plate over and tapping it dry on a dry paper towel. Immediately afterwards, the 1× passive lysis buffer (25 μL) was added. The plates were then placed on a rocker for 15 minutes at medium speed. (2)Measuring luciferase signal: The luciferase substrate solution for all wells was placed in a solution basin. The luciferase substrate solution was then added to every well (100 μL/well) using a multichannel pipette. The total luminescence was then read immediately using a plate reader. (3)Measuring Renilla signal: The “complete stop solution” was prepared in a solution basin by mixing the buffer with the 50× stop solution substrate (Promega) to make the final 1× solution. The complete stop solution was added to each well (50 μL/well) using a multichannel pipette. The total luminescence was then read immediately using a plate reader. Using a spreadsheet (e.g., Excel), the luciferase signal was divided by the renilla signal to get a relative luciferase unit.

CC(=O)NCCCC(=O)N[C@H]1CC[C@@H](Cc2nc3ccccc3s2)CC1 [Compound 171]
> 10 µM: CC50 at 72 h [1] | CC50 at 72 h [2] | EC50 [3]

CC(=O)NCCCC(=O)Nc1cccc(-c2nc3ccccc3s2)c1 [Compound 71]
> 10 µM: CC50 at 72 h [1] | CC50 at 72 h [2] | EC50 [3]

C=C(C)NCCC(=C)Nc1cc(C)cc(Cc2nc3ccccc3s2)c1 [Compound 120]
> 10 µM: CC50 at 72 h [1] | CC50 at 72 h [2] | EC50 [3]

CC(=O)NCCCC(=O)Nc1ccc(-c2nccs2)cc1 [Compound 70]
> 10 µM: CC50 at 72 h [1] | CC50 at 72 h [2] | EC50 [3]

CC(=O)NCCCC(=O)N[C@H]1CC[C@H](c2nc3ccccc3s2)C1 [Compound 115]
> 10 µM: CC50 at 72 h [1] | CC50 at 72 h [2] | EC50 [3]

O=C(CCCN1C(=O)CCC1=O)NC1CCC(c2nc3ccccc3s2)C1 (stereo not drawn) [Compound 90]
> 10 µM: CC50 at 72 h [1] | CC50 at 72 h [2] | EC50 [3]

CC(=O)NCCCC(=O)NC1CCC(c2nc3ccccc3s2)CC1 (stereo not drawn) [Compound 28]
> 10 µM: CC50 at 72 h [1] | CC50 at 72 h [2] | EC50 [3]

O=C(CCCN1C(=O)CCC1=O)N[C@H]1C[C@@H](c2nc3ccccc3s2)C1 [Compound 97]
> 10 µM: CC50 at 72 h [1] | CC50 at 72 h [2] | EC50 [3]
